Like-named read-outs stand apart in the source and are kept apart here.
System: patients with advanced TP53 wild-type (WT) leukemias
Text: Patients with Ph+ ALL who show early markers of relapse in MRD surveillance can be considered for inclusion as long as other therapies such as TKIs are exhausted or cannot be given. • Tumor of the patient is TP53 wt characterized by, at a minimum, no mutations in exons 5, 6, 7 and 8, and the p53 status was obtained from a bone-marrow sample, collected no longer than 3 months before signing the main ICF. Safety and Tolerability Profile of Regimen 1B in Hematological Tumors

## COc1ncc(-c2nc3c(n2C(C)C)[C@H](c2ccc(Cl)cc2)N(c2cc(Cl)cn(C)c2=O)C3=O)c(OC)n1 [HDM201, (S)-5-(5-Chloro-1-methyl-2-oxo-1,2-dihydro-pyridin-3-yl)-6-(4-chloro-phenyl)-2-(2,4-dimethoxy-pyrimidin-5-yl)-1-isopropyl-5,6-dihydro-1H-pyrrolo[3,4-d]imidazol-4-one]
All subjects N = 37, Grade 3/4
  AE: Atypical Pneumonia: 0 n (%)
  AE: Balanitis Candida: 0 n (%)
  AE: Blood Alkaline Phosphatase Increased: 0 n (%)
  AE: Blood Bilirubin Increased: 0 n (%)
  AE: Blood Creatinine Increased: 1 (2.7) n (%)
  AE: Blood Phosphorus Increased: 0 n (%)
  AE: Blood Uric Acid Increased: 1 (2.7) n (%)
  AE: Bone Marrow Failure: 1 (2.7) n (%)
  AE: C-Reactive Protein Increased: 1 (2.7) n (%)
  AE: Cardiac Failure: 0 n (%)
  AE: Cellulitis: 1 (2.7) n (%)
  AE: Chronic Graft Versus Host Disease: 1 (2.7) n (%)
  AE: Conjunctival Haemorrhage: 0 n (%)
  AE: Constipation: 0 n (%)
  AE: Cough: 0 n (%)
  AE: Cystitis Viral: 0 n (%)
  AE: Cytomegalovirus Infection: 0 n (%)
  AE: Decreased Appetite: 0 n (%)
  AE: Diarrhoea: 0 n (%)
  AE: Dyspepsia: 0 n (%)
  AE: Dyspnoea: 1 (2.7) n (%)
  AE: Epistaxis: 0 n (%)
  AE: Fatigue: 0 n (%)
  AE: Febrile Neutropenia: 11 (29.7) n (%)
  AE: Gamma-Glutamyltransferase Increased: 1 (2.7) n (%)
  AE: General Physical Health Deterioration: 0 n (%)
  AE: Gingival Bleeding: 0 n (%)
  AE: Graft Versus Host Disease: 0 n (%)
  AE: Haemoglobin Decreased: 0 n (%)
  AE: Headache: 0 n (%)
  AE: Hyperbilirubinaemia: 0 n (%)
  AE: Hyperglycaemia: 0 n (%)
  AE: Hyperkalaemia: 1 (2.7) n (%)
  AE: Hyperphosphataemia: 0 n (%)
  AE: Hyperuricaemia: 1 (2.7) n (%)
  AE: Hypoalbuminaemia: 0 n (%)
  AE: Hypocalcaemia: 0 n (%)
  AE: Hypokalaemia: 0 n (%)
  AE: Hypomagnesaemia: 0 n (%)
  AE: Hyponatraemia: 0 n (%)
  AE: Hypophosphataemia: 2 (5.4) n (%)
  AE: Hypotension: 0 n (%)
  AE: Infection: 1 (2.7) n (%)
  AE: Infective Glossitis: 0 n (%)
  AE: Iron Overload: 0 n (%)
  AE: Leukopenia: 2 (5.4) n (%)
  AE: Lip Oedema: 0 n (%)
  AE: Lipase Increased: 2 (5.4) n (%)
  AE: Macular Oedema: 1 (2.7) n (%)
  AE: Malaise: 0 n (%)
  AE: Mouth Haemorrhage: 0 n (%)
  AE: Nausea: 0 n (%)
  AE: Neutropenia/Neutrophil Count Decreased: 11 (29.7) n (%)
  AE: Oedema: 0 n (%)
  AE: Oedema Peripheral: 0 n (%)
  AE: Oral Disorder: 0 n (%)
  AE: Pain In Extremity: 0 n (%)
  AE: Pancytopenia: 2 (5.4) n (%)
  AE: Pneumonia: 0 n (%)
  AE: Pollakiuria: 0 n (%)
  AE: Pyrexia: 0 n (%)
  AE: Rash: 0 n (%)
  AE: Rash Erythematous: 0 n (%)
  AE: Rash Papular: 0 n (%)
  AE: Rectal Haemorrhage: 0 n (%)
  AE: Renal Failure: 1 (2.7) n (%)
  AE: Skin Exfoliation: 0 n (%)
  AE: Stomatitis: 1 (2.7) n (%)
  AE: Subarachnoid Haemorrhage: 1 (2.7) n (%)
  AE: Thrombocytopenia/Platelet Count Decreased: 18 (48.6) n (%)
  AE: Total: 25 (67.6) n (%)
  AE: Tumour Lysis Syndrome: 9 (24.3) n (%)
  AE: Vomiting: 0 n (%)
  AE: Weight Decreased: 0 n (%)
  AE: White Blood Cell Count Decreased: 3 (8.1) n (%)
Regimen 1A N = 16, All Grades
  AE: Abdominal Discomfort: 1 (6.3) n (%)
  AE: Abdominal Pain: 2 (12.5) n (%)
  AE: Abdominal Pain Upper: 1 (6.3) n (%)
  AE: Acute Kidney Injury: 1 (6.3) n (%)
  AE: Amylase Increased: 3 (18.8) n (%)
  AE: Anaemia: 6 (37.5) n (%)
  AE: Arthralgia: 1 (6.3) n (%)
  AE: Asthenia: 2 (12.5) n (%)
  AE: Atrial Fibrillation: 2 (12.5) n (%)
  AE: Atypical Pneumonia: 1 (6.3) n (%)
  AE: Balanitis Candida: 1 (6.3) n (%)
  AE: Blood Alkaline Phosphatase Increased: 1 (6.3) n (%)
  AE: Blood Bilirubin Increased: 1 (6.3) n (%)
  AE: Blood Creatinine Increased: 1 (6.3) n (%)
  AE: Blood Phosphorus Increased: 1 (6.3) n (%)
  AE: Blood Uric Acid Increased: 1 (6.3) n (%)
  AE: Bone Marrow Failure: 0 n (%)
  AE: C-Reactive Protein Increased: 1 (6.3) n (%)
  AE: Cardiac Failure: 1 (6.3) n (%)
  AE: Cellulitis: 0 n (%)
  AE: Chronic Graft Versus Host Disease: 1 (6.3) n (%)
  AE: Conjunctival Haemorrhage: 1 (6.3) n (%)
  AE: Constipation: 0 n (%)
  AE: Cough: 1 (6.3) n (%)
  AE: Cystitis Viral: 1 (6.3) n (%)
  AE: Cytomegalovirus Infection: 0 n (%)
  AE: Decreased Appetite: 4 (25.0) n (%)
  AE: Diarrhoea: 4 (25.0) n (%)
  AE: Dyspepsia: 1 (6.3) n (%)
  AE: Dyspnoea: 1 (6.3) n (%)
  AE: Epistaxis: 0 n (%)
